The target in assay [1] is full length recombinant Pim-2 (Homo sapiens (Human), UniProt Q9P1W9). The assay can be described thus: Pim enzyme assay (HTRF, phosphorylation of biotinylated-BAD (S112) peptide), Pim-2. The class given is biochemical. As to conditions: read-out: Pim2_IC50. On the technique in general: In TR-FRET formats the signal depends on donor and acceptor labels being close together.

Assay [2] addresses full length recombinant Pim-1 (Homo sapiens (Human), UniProt P11309). In words: Pim enzyme assay (HTRF, phosphorylation of biotinylated-BAD (S112) peptide), Pim-1. It counts as biochemical.
Setting [3] is: Pim-1 enzyme assay, read-out: Pim_1_IC50.
Where [4] appears, read: HTRF, 10-point curve, high dose 1 uM, 45 min at RT.
[5] abbreviates: HTRF, 10-point curve, high dose 1 uM, 2 h at RT, read-out: Pim_1_IC50.

Like-named read-outs stand apart in the source and are kept apart here. Some results are limits rather than exact numbers.

Chain of full length recombinant Pim-2 (Q9P1W9 whole entry): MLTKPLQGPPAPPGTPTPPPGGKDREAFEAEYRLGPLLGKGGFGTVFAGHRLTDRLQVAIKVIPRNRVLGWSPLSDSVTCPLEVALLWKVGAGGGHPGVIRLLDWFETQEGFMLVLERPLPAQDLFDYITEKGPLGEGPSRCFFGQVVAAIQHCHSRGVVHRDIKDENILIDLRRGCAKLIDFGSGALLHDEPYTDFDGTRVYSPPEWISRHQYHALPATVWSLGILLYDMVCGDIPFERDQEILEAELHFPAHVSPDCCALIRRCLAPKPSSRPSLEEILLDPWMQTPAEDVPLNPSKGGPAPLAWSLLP
Chain of full length recombinant Pim-1 (P11309 whole entry): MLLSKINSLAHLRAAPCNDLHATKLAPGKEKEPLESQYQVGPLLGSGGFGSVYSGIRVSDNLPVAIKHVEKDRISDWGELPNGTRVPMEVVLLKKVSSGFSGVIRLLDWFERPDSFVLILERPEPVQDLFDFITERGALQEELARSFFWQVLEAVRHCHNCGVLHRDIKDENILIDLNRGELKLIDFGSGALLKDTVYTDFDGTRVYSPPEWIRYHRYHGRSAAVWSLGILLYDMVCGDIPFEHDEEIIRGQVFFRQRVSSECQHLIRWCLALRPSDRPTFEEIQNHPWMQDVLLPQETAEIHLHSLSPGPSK

As to `CC1(C)COCCN1c1nnc(-c2ccc3[nH]cc(-c4cncc(C5CC5)n4)c3c2)o1` [Example 253, 3-(6-cyclopropyl-2-pyrazinyl)-5-(5-(3,3-dimethyl-4-morpholinyl)-1,3,4-oxadiazol-2-yl)-1H-indole], the IC50 amounted to 141 nM in assay [1] (Pim-2 enzyme assay) and 26.7 nM in assay [2] (setting [3]).
Regarding `CCOc1nc(-c2c[nH]c3ccc(-c4nnc(NC(C)C)o4)cc23)ncc1F` [Example 259, 5-(3-(4-ethoxy-5-fluoro-2-pyrimidinyl)-1H-indol-5-yl)-N-(1-methylethyl)-1,3,4-oxadiazol-2-amine], the values for the IC50 in assay [1] (Pim-2 enzyme assay) and in assay [2] (setting [3]) were 36.9 nM and 30.4 nM, respectively.
In the case of `COc1nc(-c2c[nH]c3ccc(-c4nnc(NC(C)C)o4)cc23)nc(C)c1F` [Example 260, 5-(3-(5-fluoro-4-methoxy-6-methyl-2-pyrimidinyl)-1H-indol-5-yl)-N-(1-methylethyl)-1,3,4-oxadiazol-2-amine], the IC50 in assay [1] (Pim-2 enzyme assay) is 106 nM; in assay [2] (setting [3]), 159 nM.
As to `CC(C)Nc1nnc(-c2ccc3[nH]cc(-c4nccc(C(N)=O)n4)c3c2)o1` [Example 261, 2-(5-(5-((1-methylethyl)amino)-1,3,4-oxadiazol-2-yl)-1H-indol-3-yl)-4-pyrimidinecarboxamide], the IC50 amounted to 70.8 nM in assay [1] (Pim-2 enzyme assay) and 105 nM in assay [2].
In the case of `CC(C)Nc1nnc(-c2ccc3[nH]cc(-c4ncc(F)c(C5CC5)n4)c3c2)o1` [Example 262, 5-(3-(4-cyclopropyl-5-fluoro-2-pyrimidinyl)-1H-indol-5-yl)-N-(1-methylethyl)-1,3,4-oxadiazol-2-amine], the IC50 in assay [1] (Pim-2 enzyme assay) is 2.77 nM; in assay [2] (setting [3]) it was 2.53 nM.
On the same counts, the results for `CC(C)Nc1nnc(-c2ccc3[nH]cc(-c4nc(C5CC5)n[nH]4)c3c2)o1` [Example 263, 5-(3-(3-cyclopropyl-1H-1,2,4-triazol-5-yl)-1H-indol-5-yl)-N-(1-methylethyl)-1,3,4-oxadiazol-2-amine] are 383 nM and 241 nM.
As to `CC(C)Cc1nnc(-c2ccc3[nH]cc(-c4cncc(C5CC5)n4)c3c2)o1` [Example 265, 3-(6-cyclopropyl-2-pyrazinyl)-5-(5-(2-methylpropyl)-1,3,4-oxadiazol-2-yl)-1H-indole], the IC50 in assay [1] (Pim-2 enzyme assay) was 51 nM; in assay [2], 28.6 nM.
As to `Fc1cccc(Nc2nnc(-c3ccc4[nH]cc(-c5nccc(C6CC6)n5)c4c3)o2)c1` [Example 269, 5-(3-(4-cyclopropyl-2-pyrimidinyl)-1H-indol-5-yl)-N-(3-fluorophenyl)-1,3,4-oxadiazol-2-amine], the IC50 in assay [1] (Pim-2 enzyme assay) is 450 nM; in assay [2] (setting [3]), 364 nM.
In the case of `Cc1ccnc(-c2c[nH]c3ccc(-c4nnc(NC(C)(C)C)o4)cc23)n1` [Example 270, N-tert-butyl-5-(3-(4-methyl-2-pyrimidinyl)-1H-indol-5-yl)-1,3,4-oxadiazol-2-amine], the IC50 in assay [1] (Pim-2 enzyme assay) came to 34.8 nM; in assay [2] (setting [3]), 8.77 nM.
On the same counts, the results for `Cc1cc(N)nc(-c2c[nH]c3ccc(-c4nnc(NC(C)(C)C)o4)cc23)n1` [Example 272, 2-(5-(5-(tert-butylamino)-1,3-4-oxadiazol-2-yl)-1H-indol-3-yl)-6-methyl-4-pyrimidinamine] are 351 nM and 105 nM.
For the molecule `CC(C)(C)Nc1nnc(-c2ccc3[nH]cc(-c4nccc(C(N)=O)n4)c3c2)o1` [Example 273, 2-(5-(5-(tert-butylamino)-1,3-4-oxadiazol-2-yl)-1H-indol-3-yl)-4-pyrimidinecarboxamide], the values for the IC50 in assay [1] (Pim-2 enzyme assay) and in assay [2] (setting [3]) were 28.5 nM and 11.8 nM, respectively.
As to `Cc1cncc(-c2c[nH]c3ccc(-c4nnc(-c5ccccc5)s4)cc23)n1` [Example 274, 3-(6-methyl-2-pyrazinyl)-5-(5-phenyl-1,3,4-thiadiazol-2-yl)-1H-indole], the IC50 in assay [1] (Pim-2 enzyme assay) and in assay [2] was over 1000 nM in each case.
Turning to `CC(C)Nc1nnc(-c2ccc3[nH]cc(-c4ncc(C(=O)NC5CC5)s4)c3c2)o1` [Example 275, N-cyclopropyl-2-(5-(5-((1-methylethyl)amino)-1,3,4-oxadiazol-2-yl)-1H-indol-3-yl)-1,3-thiazole-5-carboxamide], the IC50 in assay [1] (setting [4]) stood at 705 nM; in assay [2] (setting [5]), 259 nM.
Regarding `CC(C)Nc1nnc(-c2ccc3[nH]cc(-c4ncc(C(N)=O)s4)c3c2)o1` [Example 276, 2-(5-(5-((1-methylethyl)amino)-1,3,4-oxadiazol-2-yl)-1H-indol-3-yl)-1,3-thiazole-5-carboxamide], the IC50 in assay [1] (setting [4]) turned out to be 315 nM; in assay [2] (setting [5]), 111 nM.
On the same counts, the results for `CC(C)(C)Nc1nnc(-c2ccc3[nH]cc(-c4ncc(C(N)=O)s4)c3c2)o1` [Example 277, 2-(5-(5-(tert-butylamino)-1,3,4-oxadiazol-2-yl)-1H-indol-3-yl)-1,3-thiazole-5-carboxamide] are 393 nM and 58.2 nM.
On the same counts, the results for `CC(C)Nc1nnc(-c2ccc3[nH]cc(-c4nc(C(=O)NC5CC5)cs4)c3c2)o1` [Example 278, N-cyclopropyl-2-(5-(5-((1-methylethyl)amino)-1,3,4-oxadiazol-2-yl)-1H-indol-3-yl)-1,3-thiazole-4-carboxamide] are 408 nM and 186 nM.
On the same counts, the results for `CNC(=O)c1ccnc(-c2c[nH]c3ccc(-c4nnc(NC(C)C)o4)cc23)n1` [Example 282, N-methyl-2-(5-(5-((1-methylethyl)amino)-1,3,4-oxadiazol-2-yl)-1H-indol-3-yl)-4-pyrimidinecarboxamide 2,2,2-trifluoroacetate] are 652 nM and 509 nM.
In the case of `CC(C)Nc1nnc(-c2ccc3[nH]cc(-c4nccc(C(=O)NC5CC5)n4)c3c2)o1` [Example 283, N-cyclopropyl-2-(5-(5-((1-methylethyl)amino)-1,3,4-oxadiazol-2-yl)-1H-indol-3-yl)-4-pyrimidinecarboxamide 2,2,2-trifluoroacetate], the IC50 stood at 453 nM in assay [1] (setting [4]) and 517 nM in assay [2] (setting [5]).
Take `CS(=O)(=O)c1ccc(-c2c[nH]c3ccc(-c4nnc(N)o4)cc23)nc1` [Example 284, 5-(3-(5-(methylsulfonyl)-2-pyridinyl)-1H-indol-5-yl)-1,3,4-oxadiazol-2-amine 2,2,2-trifluoroacetate]: the results for the IC50 in assay [1] and in assay [2] (setting [5]) were 555 nM and 515 nM, respectively.
Regarding `CNC(=O)c1cccc(-c2c[nH]c3ccc(-c4nnc(NC(C)C)o4)cc23)n1` [Example 285, 6-(5-(5-(isopropylamino)-1,3,4-oxadiazol-2-yl)-1H-indol-3-yl)-N-methylpicolinamide], the IC50 in assay [1] (setting [4]) stood at 760 nM; in assay [2] (setting [5]), 401 nM.
Take `CNC(=O)c1cncc(-c2c[nH]c3ccc(-c4nnc(NC(C)C)o4)cc23)c1` [Example 286, 5-(5-(5-(isopropylamino)-1,3,4-oxadiazol-2-yl)-1H-indol-3-yl)-N-methylnicotinamide]: the IC50 in assay [1] (setting [4]) is 843 nM; in assay [2] (setting [5]), 713 nM.
Regarding `CNC(=O)c1ccc(F)c(-c2c[nH]c3ccc(-c4nnc(NC(C)C)o4)cc23)c1` [Example 289, 4-fluoro-3-(5-(5-(isopropylamino)-1,3,4-oxadiazol-2-yl)-1H-indol-3-yl)-N-methylbenzamide], the IC50 in assay [1] (setting [4]) came out at 301 nM; in assay [2], 233 nM.
As to `CC(C)Nc1nnc(-c2ccc3[nH]cc(-c4ccc(C(N)=O)cc4F)c3c2)o1` [Example 290, 3-fluoro-4-(5-(5-(isopropylamino)-1,3,4-oxadiazol-2-yl)-1H-indol-3-yl)benzamide], the IC50 was 238 nM in assay [1] (setting [4]) and 69.6 nM in assay [2].
For the molecule `CC(C)Nc1nnc(-c2ccc3[nH]cc(-c4cccc(C(=O)N(C)C)n4)c3c2)o1` [Example 292, N,N-dimethyl-6-(5-(5-((1-methylethyl)amino)-1,3,4-oxadiazol-2-yl)-1H-indol-3-yl)-2-pyridinecarboxamide], the values for the IC50 in assay [1] (setting [4]) and in assay [2] (setting [5]) were 541 nM and 496 nM, respectively.
Turning to `CC(C)Nc1nnc(-c2ccc3[nH]cc(-c4cncc(C(=O)N(C)C)c4)c3c2)o1` [Example 296, N,N-dimethyl-5-(5-(5-((1-methylethyl)amino)-1,3,4-oxadiazol-2-yl)-1H-indol-3-yl)-3-pyridinecarboxamide], the IC50 in assay [1] (setting [4]) and in assay [2] (setting [5]) was over 1000 nM throughout.
Take `COc1nccc(-c2c[nH]c3ccc(-c4nnc(NC(C)C)o4)cc23)n1` [Example 297, 5-(3-(2-methoxy-4-pyrimidinyl)-1H-indol-5-yl)-N-(1-methylethyl)-1,3,4-oxadiazol-2-amine]: the IC50 was 73.8 nM in assay [1] (setting [4]) and 39.2 nM in assay [2] (setting [5]).
`COc1nc(-c2c[nH]c3ccc(-c4nnc(NC(C)C)o4)cc23)cc(=O)[nH]1` [Example 298, 2-methoxy-6-(5-(5-((1-methylethyl)amino)-1,3,4-oxadiazol-2-yl)-1H-indol-3-yl)-4(3H)-pyrimidinone]: the IC50 worked out at 24.4 nM in assay [1] (setting [4]) and 15.9 nM in assay [2] (setting [5]).
Take `CC(C)Nc1nnc(-c2ccc3[nH]cc(-c4cncc(C(=O)NC5CC5)c4)c3c2)o1` [Example 299, N-cyclopropyl-5-(5-(5-((1-methylethyl)amino)-1,3,4-oxadiazol-2-yl)-1H-indol-3-yl)-3-pyridinecarboxamide]: the IC50 was 299 nM in assay [1] (setting [4]) and 767 nM in assay [2] (setting [5]).
On the same counts, the results for `CC(C)Nc1nnc(-c2ccc3[nH]cc(NC(=O)c4ccncc4)c3c2)o1` [Example 304, N-(5-(5-((1-methylethyl)amino)-1,3,4-oxadiazol-2-yl)-1H-indol-3-yl)-4-pyridinecarboxamide] are 115 nM and 70 nM.

The record behind these values is patent US9321756B2, “Azole compounds as PIM inhibitors” (priority 2011, dated 2016).
